# Columns and labels:
# [1] = tested on: methicillin-resistant Staphylococcus epidermidis (MRSE); experiment: In vitro antibacterial activity, standard agar dilution method, MRSE; format: cell-based; settings: clinical strains
# Source text: (§1) Strains for test: methicillin-resistant Staphylococcus aureus (MRSA), methicillin-sensitive Staphylococcus aureus (MSSA), methicillin-resistant Staphylococcus epidermidis (MRSE), methicillin-sensitive Staphylococcus […] (MSSE), Enterococcus faecium, Enterococcus faecalis, streptococcus pneumoniae. Obtained from: Qianfoshan Hospital, First People's Hospital of Yunnan Province, Renji Hospital of Shanghai, People's Hospital of Jilin Province, Southwest Hospital.
# (§2) Compounds 1, 3, 4, 6, 8, 11 of the present invention, prepared according to the process in each of the examples.
# (§3) Control pharmaceutical: linezolid.
# (§4) standard agar dilution method, reference was made to National Committee for Clinical Laboratory Standards. 2006. Methods for Dilution Antimicrobial Susceptibility Tests for Bacteria That Grow Aerobically, Approved Standard—Seventh Edition M7-A7.
# [2] = tested on: methicillin-sensitive Staphylococcus aureus (MSSE); experiment: In vitro antibacterial activity, standard agar dilution method, MSSE; format: cell-based, Staphylococcus epidermidis; settings: clinical strains
# Source text: as §1, §2, §3, §4
# streptococcus pneumoniae = experiment: In vitro antibacterial activity, standard agar dilution method, Streptococcus pneumoniae; format: cell-based; settings: clinical strains
# Source text: as §1, §2, §3, §4
# Enterococcus faecalis = experiment: In vitro antibacterial activity, standard agar dilution method, Enterococcus faecalis; format: cell-based; settings: clinical strains
# Source text: as §1, §2, §3, §4
# [3] = tested on: methicillin-sensitive Staphylococcus aureus (MSSA); experiment: In vitro antibacterial activity, standard agar dilution method, MSSA; format: cell-based; settings: clinical strains
# Source text: as §1, §2, §3, §4
# [4] = tested on: methicillin-resistant Staphylococcus aureus (MRSA); experiment: In vitro antibacterial activity, standard agar dilution method, MRSA; format: cell-based; settings: clinical strains
# Source text: as §1, §2, §3, §4
# Enterococcus faecium = experiment: In vitro antibacterial activity, standard agar dilution method, Enterococcus faecium; format: cell-based; settings: clinical strains
# Source text: as §1, §2, §3, §4
# [5] = In vivo pharmacokinetics test on rat, I.V (intravenous push); settings: male SD rat, 0.75 mg/kg, plasma, Compound 3 itself detected
# Experimental: (§5) Compounds 2, 3, 5, 7, 9, prepared by the processes in the examples, dissolved in physiological saline.
# (§6) Administration is performed as described in the table below, fasting without water deprivation for 16 hours before administration, providing food 4 hours after the administration.
# I.V representing administration by intravenous push
# (§7) I.V: blood collection was carried out according to the time points in the table below. At each time point about 100 μl whole blood was collected into a heparin sodium anticoagulation tube, centrifuged at 4° C. in a low temperature high speed centrifuge at 8000 rpm for 6 minutes. Plasma was separated and stored frozen in a freezer at −80° C.
# (§8) Compound 5, 7, 9: 20 μl plasma was each taken and added into 100 μl of Torezolid (TR-700) solution in methanol at a concentration of 50 ng/ml, mixed under vortex for 5 minutes, centrifuged at 12000 rpm for 5 minutes; 100 μl of supernatant was taken and added into 100 μl water, mixed under vortex for 2 minutes, and analyzed by using LC-MS/MS.
# (§9) Compound 2: 20 μl plasma was taken and added into 100 μl of Radezolid solution in methanol at a concentration of 50 ng/ml, mixed under vortex for 3 minutes, centrifuged at 12000 rpm for 5 minutes; 100 μl of supernatant was taken and added into 100 μl water, mixed under vortex for 2 minutes, and analyzed by using LC-MS/MS.
# (§10) Compound 3: 20 μl plasma was taken and added into 800 μl of KBP-3957 methyl tert-butyl ether solution at a concentration of 10 ng/ml, mixed under vortex for 10 minutes, centrifuged at 12000 rpm for 5 minutes; 400 μl of supernatant was taken and added into a 96-well plate, purged to dryness by nitrogen, 200 μl of methanol:water (7:3) solution was added, mixed under vortex for 10 minutes, and analyzed by using LC-MS/MS.
# (§11) Compound 2 is the prodrug of compound 1. Compound 5 is the prodrug of compound 4. Compound 7 is the prodrug of compound 6. Compound 9 is the prodrug of compound 8. Thus, PK data of active compounds, i.e. compounds 1, 4, 6, 8, were detected after administration, respectively.
# [6] = In vivo pharmacokinetics test on rat, P.O (lavage); settings: plasma, po, male SD rat, Compound 3 itself detected
# Experimental: as §5, §6
# P.O representing administration by lavage
# as §7, §8, §9, §10, §11
# Calculation Formula Absolute bioavailability F %=[AUC]INF(PO)*Dose(IV)/[AUC]INF(IV)*Dose(PO)
# [7] = tested on: methicillin-sensitive (MSSE); experiment: In vitro antibacterial activity, standard agar dilution method, MSSE; format: cell-based, Staphylococcus epidermidis; settings: clinical strains
# Source text: as §1, §2, §3, §4
SMILES,antibacterial activity MRSE [1] [µg/mL],antibacterial activity MSSE [2] [µg/mL],antibacterial activity Streptococcus pneumoniae (streptococcus pneumoniae) [µg/mL],antibacterial activity Enterococcus faecalis (Enterococcus faecalis) [µg/mL],antibacterial activity MSSA [3] [µg/mL],antibacterial activity MRSA [4] [µg/mL],antibacterial activity Enterococcus faecium (Enterococcus faecium) [µg/mL],AUC(0-inf) [5] [ng·h/mL],clearance [5] [mL/min/kg],half-life [5] [h],Vd ([5]; read-out: Vss) [L/kg],"bioavailability ([6]; P.O 1 mg/kg vs I.V 0.75 mg/kg, read-out: F % (absolute bioavailability)) [%]","AUC(0-inf) ([6]; P.O, 1 mg/kg) [ng·h/mL]","Cmax ([6]; P.O, 1 mg/kg) [ng/mL]","Tmax ([6]; P.O, 1 mg/kg) [h]","half-life ([6]; P.O, 1 mg/kg) [h]",antibacterial activity MSSE [7] [µg/mL]
"Cn1nnc(Nc2ccc(-c3ccc(N4C[C@H](CO)OC4=O)cc3F)cn2)n1 [Compound 1, (R)-3-(3-fluoro-4-(6-((2-methyl-2H-tetrazol-5-yl)amino)pyridin-3-yl)phenyl)-5-(hydroxylmethyl)oxazolidin-2-one]",0.5,0.5,0.5,1,1,1,1,–,–,–,–,–,–,–,–,–,–
"CC(=O)NC[C@H]1CN(c2ccc(-c3ccc(Nc4nnn(C)n4)nc3)c(F)c2)C(=O)O1 [Compound 3, (S)-N-((3-(3-fluoro-4-(6-((2-methyl-2H-tetrazol-5-yl)amino)pyridin-3-yl)phenyl)-2-oxooxazolidin-5-yl)methyl)acetamide]",0.25,–,0.25,0.25,0.5,1,0.25,11600,1.17,5.29,0.37,45.5,7030,614,4,5.55,0.25
"Cn1nnnc1Nc1ccc(-c2ccc(N3C[C@H](CO)OC3=O)cc2F)cn1 [Compound 4, (R)-3-(3-fluoro-4-(6-((1-methyl-1H-tetrazol-5-yl)amino)pyridin-3-yl)phenyl)-5-(hydroxylmethyl)oxazolidin-2-one]",0.125,0.125,1,0.25,0.25,0.25,0.25,–,–,–,–,–,–,–,–,–,–
"CN(c1ccc(-c2ccc(N3C[C@H](CO)OC3=O)cc2F)cn1)c1nnnn1C [Compound 6, (R)-3-(3-fluoro-4-(6-(methyl(1-methyl-1H-tetrazol-5-yl)amino)pyridin-3-yl)phenyl)-5-(hydroxylmethyl)oxazolidin-2-one]",0.5,0.5,0.5,1,0.5,0.5,1,–,–,–,–,–,–,–,–,–,–
"CN(c1ccc(-c2ccc(N3C[C@H](CO)OC3=O)cc2F)cn1)c1nnn(C)n1 [Compound 8, (R)-3-(3-fluoro-4-(6-(methyl(2-methyl-2H-tetrazol-5-yl)amino)pyridin-3-yl)phenyl)-5-(hydroxylmethyl)oxazolidin-2-one]",0.5,0.5,0.5,1,1,1,1,–,–,–,–,–,–,–,–,–,–
"Cn1cc(Nc2ccc(-c3ccc(N4C[C@H](CO)OC4=O)cc3F)cn2)nn1 [Compound 11, (R)-3-(3-fluoro-4-(6-((1-methyl-1H-1,2,3-triazol-4-yl)amino)pyridin-3-yl)phenyl)-5-(hydroxylmethyl)oxazolidin-2-one]",1,0.5,1,2,1,1,2,–,–,–,–,–,–,–,–,–,–
"CC(=O)NC[C@H]1CN(c2ccc(N3CCOCC3)c(F)c2)C(=O)O1 [linezolid, Linezolid, reference compound]",2,2,2,4,2,4,4,–,–,–,–,–,–,–,–,–,–

# Reference: patent publication US9359344B2, “Biaryl heterocycle substituted oxazolidinone antibacterial agents” (Xuanzhu Pharma Co., Ltd., priority 2011, dated 2016)
